Data on 35 compounds can be found in patent publication US8993622B2, “Antiviral compounds” (Eirium AB, priority 2010, dated 2015).

One series relates to Ad5. As to the kind of experiment: microbe, parasite or virus in culture. In kind it is cell-based, human adenovirus. As to conditions: for Inh. (% inhibition of Ad5 at 15 μM): Ad5, 15 μM (Table 2); for inhibition at 5 µM: A549, read-out: % Inh. at 5 μM; for inhibition at 20 µM: A549, read-out: % Inh. at 20 μM; for activity compared with A02 (inhibition of adenovirus replication): second generation inhibitors, Table 4; for EC50: A549; for effect on the replication of Ad5 (QPCR): A549 cells.

For another series, the system named is cells. As to the kind of experiment: Cellular toxicity of select compounds (% dead cells, CC50). In kind it is cell-based.
[1] abbreviates: Human adenovirus sp., A549, read-out: Inh. (% inhibition of Ad5 at 15 μM).
Setting [2] is: unidentified adenovirus, A549, read-out: % Inh. at 15 μM.

The structures appear in SMILES notation. Like-named read-outs stand apart in the source and are kept apart here.

As a reminder, the EC50 is the concentration at which the effect is half-maximal. Higher therefore signals lower potency in that assay.

For the compound `CCOC(=O)c1cccc(NC(=O)c2ccccc2NC(=O)c2ccccc2)c1` [Compound 7a, 4-Ethyl 3-[(2-benzoylamino)benzoylamino]-benzoate], the inhibition at 15 µM in the series with Ad5 (setting [1]) is 0%.
Regarding `CCOC(=O)c1ccc(NC(=O)c2ccccc2NC(=O)c2ccccc2)cc1` [Compound 7b, Ethyl 4-[(2-benzoylamino)benzoylamino]-benzoate], in the series with Ad5, the “Inh. (% inhibition of Ad5 at 15 μM)” value came out at 8%.
On the same count and under the same terms, under `CCOC(=O)c1ccccc1NC(=O)c1cccc(NC(=O)c2ccccc2)c1` [Compound 7c, Ethyl 2-[(3-benzoylamino)benzoylamino]-benzoate] stands 25%; under `CCOC(=O)c1ccccc1NC(=O)c1ccc(NC(=O)c2ccccc2)cc1` [Compound 7d, Ethyl 2-[(4-benzoylamino)benzoylamino]-benzoate], 15%.
Same read-out and setting: then `O=C(O)c1cccc(NC(=O)c2ccccc2NC(=O)c2ccccc2)c1` [Compound 8a, 3-[(2-benzoylamino)benzoylamino]-benzoic acid], with 8%.
Same read-out and setting: under `O=C(O)c1ccc(NC(=O)c2ccccc2NC(=O)c2ccccc2)cc1` [Compound 8b, 4-[(2-benzoylamino)benzoylamino]-benzoic acid] stands 8%.
Consider `O=C(Nc1cccc(C(=O)Nc2ccccc2C(=O)O)c1)c1ccccc1` [Compound 8c, 2-[(3-benzoylamino)benzoylamino]-benzoic acid], for which the “Inh. (% inhibition of Ad5 at 15 μM)” value with Ad5 is 39%.
Take `O=C(Nc1ccc(C(=O)Nc2ccccc2C(=O)O)cc1)c1ccccc1` [Compound 8d, 2-[(4-benzoylamino)benzoylamino]-benzoic acid]: in the series with Ad5 (setting [1]), the inhibition at 15 µM came to 47%.
On the same count and under the same terms, under `O=C(Nc1ccccc1C(=O)Nc1ccccc1)c1ccccc1` [Compound 11, 2-Benzoylamino-N-phenyl-benzamide] stands 18%.
Turning to `Cc1ccc(C(=O)Nc2ccccc2C(=O)Nc2ccccc2C(=O)O)cc1` [Compound 12c, 2-[[2-(4-Methyl-benzoylamino)benzoyl]amino]-benzoic acid], in the series with Ad5 (Human adenovirus sp.), the inhibition at 5 µM came to 89.2% and the inhibition at 20 µM stood at 98.5%.
For the compound `NC(=O)c1ccccc1NC(=O)c1cccc(NC(=O)c2ccccc2)c1` [Compound 12d, 2-[[3-(Benzoylamino)benzoyl]amino]-benzamide], in the series on Ad5 (Human adenovirus sp.), the inhibition at 5 µM came out at 51.1% and the inhibition at 20 µM turned out to be 44.2%.
The like results for `Cc1ccccc1C(=O)Nc1cccc(C(=O)Nc2ccccc2C(=O)O)c1` [Compound 12e, 2-[[3-(2-Methyl-benzoylamino)benzoyl]amino]-benzoic acid] were, in that order, 44% and 55.8%.
Taken in the same sequence, the figures for `COc1ccc(C(=O)Nc2ccccc2C(=O)Nc2ccccc2C(=O)O)cc1` [Compound 12f, 2-[[2-(4-Methoxy-benzoylamino)benzoyl]amino]-benzoic acid] were 25.2% and 96.5%.
Taken in the same sequence, the figures for `Cc1ccc(C(=O)Nc2ccccc2C(=O)Nc2ccccc2C)cc1` [Compound 12g, 4-Methyl-N-{2-[(2-methylphenyl)carbamoyl]phenyl}-benzamide] were 24.5% and 22.2%.
As for `CC(=O)Nc1ccccc1C(=O)Nc1ccccc1C(=O)O` [Compound 17a, 2-[2-(Acetylamino)benzoylamino]benzoic acid], the inhibition at 5 µM in the series with Ad5 (unidentified adenovirus) was 4 ± 11%. Further, the inhibition at 15 µM with Ad5 (setting [2]) was 24 ± 14%.
On to `CS(=O)(=O)Nc1ccccc1C(=O)Nc1ccccc1C(=O)O` [Compound 17b, 2-[2-(Methanesulfonylamino)benzoylamino]benzoic acid], for which, in the series with Ad5 (unidentified adenovirus), the inhibition at 5 µM amounted to 0%. In the series with Ad5 (setting [2]), the inhibition at 15 µM turned out to be 23 ± 12%.
For the compound `Cc1ccc(S(=O)(=O)Nc2ccccc2C(=O)Nc2ccccc2C(=O)O)cc1` [Compound 17c, 2-[2-(p-Toluenesulfonylamino)benzoylamino]benzoic acid], the inhibition at 5 µM with Ad5 (unidentified adenovirus) worked out at 2 ± 24%. In addition, in the series with Ad5 (setting [2]), the inhibition at 15 µM came out at 8 ± 35%.
The like results for `CC(C)(C)C(=O)Nc1ccccc1C(=O)Nc1ccccc1C(=O)O` [Compound 17d, 2-[2-(Trimethylacetylamino)benzoylamino]benzoic acid] were, in that order, 45 ± 7% and 52 ± 18%.
As to `O=C(O)c1ccccc1NC(=O)c1ccccc1NC(=O)C1CCCCC1` [Compound 17e, 2-[[2-(Cyclohexanecarboxylamino)benzoyl]amino]benzoic acid], the “activity compared with A02 (inhibition of adenovirus replication)” value in the series with Ad5 was “diminished but not abolished activity”. For the same compound, the inhibition at 5 µM with Ad5 (unidentified adenovirus) turned out to be 20 ± 1%. Besides, the inhibition at 15 µM with Ad5 (setting [2]) turned out to be 55 ± 11%.
As for `O=C(O)CCC(=O)Nc1ccccc1C(=O)Nc1ccccc1C(=O)O` [Compound 17f, 2-[2-(4-Carboxybutanoylamido)benzoyl]aminobenzoic acid], in the series with Ad5 (unidentified adenovirus), the inhibition at 5 µM is 0%. Further, the inhibition at 15 µM in the series with Ad5 (setting [2]) was 0%.
With `O=C(O)c1ccccc1NC(=O)c1ccccc1NCc1ccccc1` [Compound 17g, 2-[2-(Benzylamino)benzoylamino]benzoic acid], the “activity compared with A02 (inhibition of adenovirus replication)” value in the series with Ad5 was “diminished but not abolished activity”. In the series on Ad5 (unidentified adenovirus), the EC50 was 11.4 µM and the inhibition at 5 µM is 44 ± 17%. The inhibition at 15 µM in the series on Ad5 (setting [2]) is 79 ± 5%. In addition, in the series with cells, the “Toxicity at 30 μM (% dead cells after 24 h)” value amounted to 6 ± 10% and the “Toxicity at 60 μM (% dead cells after 24 h)” value is recorded as 11 ± 13%.
Turning to `O=C(Nc1ccccc1C(=O)Nc1ccccc1C(=O)O)c1ccccc1F` [Compound 17h, 2-[2-(2-Fluorobenzoylamino)-benzoylamino]benzoic acid], the “activity compared with A02 (inhibition of adenovirus replication)” value in the series with Ad5 is “statistically significantly higher activity than A02”. For the same compound, in the series with Ad5 (unidentified adenovirus), the midpoint of the response, the EC50, lay at 2.3 µM and the inhibition at 5 µM was 96 ± 1%. Also, the inhibition at 15 µM with Ad5 (setting [2]) came out at 96 ± 1%. For the same compound, in the series on cells, the “Toxicity at 30 μM (% dead cells after 24 h)” value is given as 17 ± 9% and the “Toxicity at 60 μM (% dead cells after 24 h)” value amounted to 29 ± 12%. Moreover, in the series with cells (Table 7), the “cellular toxicity compared with A02” value is reported as “slightly more toxic than A02”.
In the case of `O=C(Nc1ccccc1C(=O)Nc1ccccc1C(=O)O)c1cccc(F)c1` [Compound 17i, 2-[2-(3-Fluorobenzoylamino)-benzoylamino]benzoic acid], the inhibition at 5 µM in the series with Ad5 (unidentified adenovirus) is 41 ± 32%. The inhibition at 15 µM in the series with Ad5 (setting [2]) was determined as 0%.
Regarding `O=C(Nc1ccccc1C(=O)Nc1ccccc1C(=O)O)c1ccc(F)cc1` [Compound 17j, 2-[2-(4-Fluorobenzoylamino)-benzoylamino]benzoic acid], in the series on Ad5 (unidentified adenovirus), the midpoint of the response, the EC50, lay at 3.5 µM and the inhibition at 5 µM turned out to be 76 ± 10%. For the same compound, the inhibition at 15 µM with Ad5 (setting [2]) came out at 95 ± 1%. Moreover, in the series on cells, the “Toxicity at 30 μM (% dead cells after 24 h)” value was 14 ± 10% and the “Toxicity at 60 μM (% dead cells after 24 h)” value turned out to be 10 ± 10%.
As for `O=C(Cc1ccccc1)Nc1ccccc1C(=O)Nc1ccccc1C(=O)O` [Compound 17k, 2-[2-(Phenylacetylamino)benzoylamino]benzoic acid], in the series on Ad5 (unidentified adenovirus), the inhibition at 5 µM stood at 32 ± 19%. For the same compound, the inhibition at 15 µM with Ad5 (setting [2]) was 21 ± 12%.
Taken in the same sequence, the figures for `O=C(O)Cc1ccccc1NC(=O)c1ccccc1NC(=O)c1ccccc1` [Compound 23, 2-[2-(benzoylamino)benzoylamino]phenylacetic acid] were 0% and 0%.
Consider `O=C(Cc1ccccc1NC(=O)c1ccccc1)Nc1ccccc1C(=O)O` [Compound 28, 2-[2-(benzoylamino)phenylacetylamino]benzoic acid], for which, in the series on Ad5 (unidentified adenovirus), the inhibition at 5 µM worked out at 0%. In addition, the inhibition at 15 µM in the series on Ad5 (setting [2]) stood at 0%.
In the case of `O=C(Nc1ccccc1C(=O)Nc1cc(Cl)ccc1C(=O)O)c1ccccc1F` [Compound 35a, 2-[2-(2-fluorobenzoylamino)-benzoylamino]-4-chlorobenzoic acid], in the series on Ad5 (unidentified adenovirus), the inhibition at 5 µM turned out to be 0%. For the same compound, the inhibition at 15 µM in the series on Ad5 (setting [2]) came out at 61%.
In the case of `O=C(Nc1ccccc1C(=O)Nc1ccc(Cl)cc1C(=O)O)c1ccccc1F` [Compound 35b, 2-[2-(2-fluorobenzoylamino)benzoylamino]-5-chlorobenzoic acid], the inhibition at 5 µM in the series with Ad5 (unidentified adenovirus) was 0%. For the same compound, the inhibition at 15 µM with Ad5 (setting [2]) stood at 0%.
Consider `COc1ccc(C(=O)O)c(NC(=O)c2ccccc2NC(=O)c2ccccc2F)c1` [Compound 35c, 2-[2-(2-fluorobenzoylamino)-benzoylamino]-4-methoxybenzoic acid], for which the inhibition at 5 µM with Ad5 (unidentified adenovirus) was 79 ± 21%. In addition, in the series on Ad5 (setting [2]), the inhibition at 15 µM is 95 ± 22%.
Taken in the same sequence, the figures for `COc1ccc(NC(=O)c2ccccc2NC(=O)c2ccccc2F)c(C(=O)O)c1` [Compound 35d, 2-[2-(2-fluorobenzoylamino)-benzoylamino]-5-methoxybenzoic acid] were 28 ± 20% and 78 ± 3%.
Take `O=C(Nc1ccccc1C(=O)Nc1cc(F)c(F)cc1C(=O)O)c1ccccc1F` [Compound 35e, 2-[2-(2-fluorobenzoylamino)-benzoylamino]-4,5-difluorobenzoic acid]: in the series on Ad5 (unidentified adenovirus), the inhibition at 5 µM turned out to be 0%. Besides, the inhibition at 15 µM with Ad5 (setting [2]) was 0%.
For the compound `O=C(Nc1cc(Cl)ccc1C(=O)Nc1ccccc1C(=O)O)c1ccccc1F` [Compound 35f, 2-[4-chloro-2-(2-fluorobenzoylamino)-benzoylamino]benzoic acid], in the series with Ad5 (unidentified adenovirus), the EC50 was found to be 4.14 µM and the inhibition at 5 µM was 57 ± 5%. In the series on Ad5 (setting [2]), the inhibition at 15 µM was 78 ± 2%. In the series on cells, the “Toxicity at 30 μM (% dead cells after 24 h)” value is 14 ± 5% and the “Toxicity at 60 μM (% dead cells after 24 h)” value was found to be 25 ± 8%.
As for `O=C(Nc1ccccc1C(=O)O)c1ccccc1` [Compound A01, reference compound], the “effect on the replication of Ad5 (QPCR)” value in the series on Ad5 is listed as “Neither the smaller (A01) nor the larger (A03) molecule showed any anti-adenoviral effect”.
Same read-out and setting: then `O=C(Nc1ccccc1C(=O)Nc1ccccc1C(=O)Nc1ccccc1C(=O)O)c1ccccc1` [Compound A03, reference compound], with “Neither the smaller (A01) nor the larger (A03) molecule showed any anti-adenoviral effect”.
